The source of these data is patent US4110472A, “Derivatives of 1-(disubstituted phenoxy)-3-amino-2-hydroxypropanes” (Bayer Aktiengesellschaft, priority 1975, dated 1978).

The LD50 is the dose expected to kill half of the subjects tested. High values mean lower toxicity, low ones greater toxicity.

Data set [1] relates to amnesia induced by electric shock. As to the kind of experiment: Protective action against amnesia induced by electric shock in male mice. Type of data set: in vivo. Particulars: vs propanolol and vincamine; 3 administrations at 24 h intervals, FIGS. 1-5. The source says: 1. Protective action against amnesia in male mice A modification of the method of Taber and Banuazizi (Psychopharmacol. 9, 382-91, 1966) was employed. Mice are taught to remain seated in a small compartment of a test cage and not to move into the larger compartment in which an electric shock to the foot were previously received. If a convulsive electric shock is applied to a mouse after it has been so taught, it develops amnesia and forgets the previous experience (the shock to its foot in the larger compartment),and moves from the smaller compartment into the larger compartment. By pre-treating the animals with a test substance, it is possible to determine whether these substances have any protective action against the amnesia produced. Each test substance is administered to the particular animal 3 times at intervals of 24 hours, the last administration being 1 hour before the first test. Two groups are formed for each test; a control group with amnesia and a pre-treated group. For each test group, the average value of the times which have elapsed befoe the barrier is crossed on the 2nd day is calculated. This time is taken as a criterion for the learning capacity.

For data set [2], the system named is 7-minute complete cerebral ischaemia. As to the kind of experiment: Restricted circulation and mortality after a transient total cerebral ischaemia (experimental apoplexy). Type of data set: in vivo.
From the text: Restricted circulation and mortality after a transient total cerebral ischaemia ("experimental apoplexy")
A 7-minute complete cerebral ischaemia is caused in curarized cats by inflating a collar placed around the neck.
The test system of data set [3] is cerebral blood flow. The data set can be described thus: Increase in the cerebral blood flow in cats (133 xenon clearance). Particulars: for increase the cerebral blood flow (in words) / activity on cerebral blood flow (in words): cats; for increase the cerebral blood flow (in words): Tables 1 and 2, FIGS. 6A, 6B and 7; for action on cerebral blood flow at lower doses vs comparison substances: intravenous administration; for activity on cerebral blood flow (in words): peroral.
From the text: (§1) Increase in the cerebral blood flow in cats and dogs Cats (1.8-3.0 kg) and dogs (18-25 kg) of both sexes are rendered analgetic with fentanyl and curarized.

The test system of data set [4] is cerebral blood flow. As to the kind of experiment: Increase in the cerebral blood flow in dogs (133 xenon clearance). Type of data set: in vivo. Particulars: FIGS. 6A, 6B and 7.
From the text: as §1
A short description of data set [5]: in vivo. Particulars: mouse.

Where a name gives a salt, the structure may show the parent alone. Some results are limits rather than exact numbers.

Take `C/C=C/c1ccc(OCC)c(OCC(O)CNC(c2ccccc2)c2ccccc2)c1` (stereo not drawn) [Compound A, 1-(2-ethoxy-5-trans-propenylphenoxy)-2-hydroxy-3-diphenylmethylaminopropane hydrochloride]: the “protective action against amnesia induced by electric shock” value (shortened to “protective action”) in data set [1] is reported as “considerably more effective”. Further, the “restriction in the cerebral blood flow after a 7-minute cerebral ischaemia” value in data set [2] (cats, pretreated 50 mg/kg perorally) is given as “no restriction”. Also, the “mortality after 7-minute cerebral ischaemia (cats died)” value in data set [2] (pretreated 50 mg/kg perorally, 94% of controls died within 48 hours, significant) turned out to be 33%. Moreover, the “increase the cerebral blood flow (in words)” value in data set [3] and in data set [4] was “significantly increase” in each case. Moreover, the “action on cerebral blood flow at lower doses vs comparison substances” value (shortened to “action … at lower doses vs comparison substances”) in data set [3] is “stronger than that of the comparison substances”. In data set [3] (at 50 and 25 mg/kg), the “activity on cerebral blood flow (in words)” value is “distinct action”. In addition, the LD50 in data set [5] (iv) was 80 mg/kg; in data set [5] (po) it was greater than 2000 mg/kg.

Regarding `CC[C@]12CCCN3CCc4c(n(c5ccccc45)[C@@](O)(C(=O)OC)C1)[C@@H]32` [vincamine, reference compound], the “activity in the experimental apoplexy test (in words)” value in data set [2] (cats) was “inactive”. The LD50 in data set [5] (iv, mice, intravenously) was determined as 95 mg/kg; in data set [5] (po, mice, orally), 460 mg/kg.

As for `CN(C)CCCOC1(Cc2ccccc2)CCCCCC1` [bencyclan, reference compound], the “activity on cerebral blood flow (in words)” value in data set [3] (50 mg/kg) was “inactive”. For the same compound, the LD50 in data set [5] (iv, mice, intravenously) was 33 mg/kg; in data set [5] (po, mice, orally), greater than 2000 mg/kg.

`OC(CNC(c1ccccc1)c1ccccc1)COc1ccc(Cl)c(Cl)c1` (centres unmarked) [Compound D, 1-(3,4-dichlorophenoxy)-2-hydroxy-3-diphenylmethylaminopropane]: the “protective action” value in data set [1] is recorded as “considerably more effective”. The “increase the cerebral blood flow (in words)” value in data set [3] and in data set [4] was “significantly increase” throughout. Moreover, in data set [3], the “action … at lower doses vs comparison substances” value is recorded as “stronger than that of the comparison substances”. In addition, the “activity on cerebral blood flow (in words)” value in data set [3] (at 50 and 25 mg/kg) is “distinct action”. The LD50 in data set [5] (iv, mice, intravenously) is 76 mg/kg; in data set [5] (po, mice, orally), greater than 2000 mg/kg.

As for `C/C=C/c1ccc(OCC)c(OCC(O)CNC2c3ccccc3-c3ccccc32)c1` (stereo not drawn) [Compound C, 1-(2-ethoxy-5-trans-propenylphenoxy)-2-hydroxy-3-(9-fluorenylamino)-propane], the “increase the cerebral blood flow (in words)” value in data set [3] and in data set [4] was “significantly increase” throughout. In addition, the “action … at lower doses vs comparison substances” value in data set [3] is “stronger than that of the comparison substances”. Moreover, the “activity on cerebral blood flow (in words)” value in data set [3] (at 50 and 25 mg/kg) is “distinct action”. Moreover, the LD50 in data set [5] (iv, mice, intravenously) was 85 mg/kg; in data set [5] (po, mice, orally) it was greater than 2000 mg/kg.

In the case of `C=CCc1ccc(OCC(O)CNC(c2ccccc2)c2ccccc2)c(OC)c1.Cl` (centres unmarked) [Compound B, 1-(2-methoxy-4-allylphenoxy)-2-hydroxy-3-diphenylmethylaminopropane hydrochloride], in data set [1], the “protective action” value is reported as “considerably more effective”. In addition, the “increase the cerebral blood flow (in words)” value in data set [3] and in data set [4] was “significantly increase” throughout. Also, in data set [3], the “action … at lower doses vs comparison substances” value is “stronger than that of the comparison substances”. The “activity on cerebral blood flow (in words)” value in data set [3] (at 50 and 25 mg/kg) is “distinct action”. For the same compound, the LD50 in data set [5] (iv, mice, intravenously) was found to be 43 mg/kg; in data set [5] (po, mice, orally), 450 mg/kg.
